Patent US11129835B2, “Methods and compositions for the inhibition of PIN1” (Beth Israel Deaconess Medical Center, Inc., priority 2012, dated 2021)

How the values were obtained:
Pin1 [1] = biological target: T1, Pin1 (Homo sapiens, UniProt Q13526); assay: Pin1 fluorescence polarization competition assay with Tamra-probe (secondary); conditions: for Emax: read-out: Tamra Secondary Efficacy
Protocol: An assay was developed for the identification of inhibitors of Pin1. […] Candidate compounds were screened in a concentration-titration series (e.g., 57 μM to 0.7 nM).
(§1) Pin1 (0.6 μM) was dispensed into black, solid 1536-well plates (32 rows by 48 columns) at 2 μL/well in Pin1 buffer (10 mM HEPES (pH 7.5), 10 mM NaCl, 0.01% Tween20, 1 mM DTT, and 1% glycerol). Next, 23 nL of compound or DMSO was delivered to each well using a pin tool (tip wash sequence: DMSO, IPA, MeOH, 3 s vacuum dry). Two μL of Pin1-1b-HiFluor488 peptide in buffer (10 mM HEPES (pH 7.5), 10 mM NaCl, 0.01% Tween20, 1 mM DTT, and 1% glycerol, 0.02 μM Pin1-1b-HiFluor488) or DMSO was then dispensed to each well using a pin tool (tip wash sequence: DMSO, IPA, MeOH, 3 s vacuum dry), and plates were incubated at room temperature for 10 min (Table 2). Each plate included controls with no candidate inhibitory compound (32 wells), with unlabeled Pin1-1c titration (3.5 mM to 0.020 mM in a 1:2 dilution series including 2 replicates per concentration; 32 wells), and without Pin1 (64 wells).
(§2) The fluorescence polarization signal of each well was measured on a ViewLux® plate reader using a 480/20 nm excitation filter and 540/25 nm S and P emission filters with a 20 second exposure with 2× binning (Table 2). Percent inhibitory activity was determined from corrected fluorescence polarization values.
(§3) Concentration-response curves were fitted to the signals arising from the resulting fluorescence polarization. The concentration-effect curves were then classified based on curve quality (r^2), response magnitude, and degree of measured activity. Compounds were subsequently categorized based on their curve class.
A further secondary assessment was accomplished by replacing the HiFluor-488-labeled probe with Tamra-probe, a red-shifted fluorophore.

Pin1 [2] = biological target: T1, Pin1; assay: confirmatory Pin1 fluorescence polarization competition assay (Alexa488 reconfirmed); conditions: for Emax: read-out: Alexa488 Reconfirmed Efficacy;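 on all read-outs here: Pin1 competition with a HiFluor488-labelled peptide probe, read as fluorescence polarization after 10 min at room temperature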
Protocol: (§4) The goal of this assay was to identify small-molecule inhibitors of Pin1 using a fluorescence polarization competition assay (FIG. 1). […] Candidate compounds were screened in a concentration-titration series (e.g., 57 μM to 0.7 nM).
as §1, §2, §3

Pin1 [3] = biological target: T1, Pin1; assay: Pin1 fluorescence polarization competition assay, primary qHTS (HiFluor-488 / Alexa488 probe);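 further: Pin1 protein with fluorescent peptide probe, compound displacement read by fluorescence polarization, percent inhibition derived from corrected polarization values, concentration-response curves in 1536-well format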
Protocol: as §4, §1, §2, §3
Curves showing change polarized fluorescence may be categorized into 5 classes. Class 1 includes complete curves, having 2 asymptotes and an r^2 value of ≥0.9, with an efficacy of either >80% (class 1.1) or ≤80% (class 1.2). Class 1 curves may also be classified as noisy curves when efficacy is >80% and r^2<0.9 (class 1.3) or when efficacy is ≤80% and r^2<0.9 (class 1.4). Class 2 includes incomplete curves having 1 asymptote and an r^2 value of either >0.9 (subclass a) or <0.9 (subclass b), with an efficacy of either >80% (class 2.1) or ≤80% (class 2.2). Class 2 curves may also be classified as noisy curves when efficacy is >80% and r^2<0.9 (class 2.3) or when efficacy is ≤80% and r^2<0.9 (class 2.4). Class 3 includes single point activity curves having 1 asymptote and an efficacy >3 SD from the mean activity of the sample field at the highest tested concentration. […] A fifth class captures any curves not otherwise classified (FIG. 4).

[4] = Alexa488 Primary Potency, primary qHTS
[5] = Average HTS Potency, average over Alexa488 primary, Alexa488 reconfirmed and Tamra secondary assays
[6] = read-out: Alexa488 Primary Efficacy

T1 sequence (Q13526 whole entry): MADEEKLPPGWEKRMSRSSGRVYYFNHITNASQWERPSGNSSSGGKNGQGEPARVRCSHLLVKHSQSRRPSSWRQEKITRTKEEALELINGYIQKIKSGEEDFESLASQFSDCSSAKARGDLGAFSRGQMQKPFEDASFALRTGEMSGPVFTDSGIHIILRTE

SMILES | IC50 (Pin1 [1]) [µM] | Tamra Secondary Curve Class (Pin1 [1]; Tamra-probe) | Emax (Pin1 [1]) [%] | IC50 (Pin1 [2]) [µM] | Alexa488 Reconfirmed Curve Class (Pin1 [2]; confirmatory retest) | Emax (Pin1 [2]) [%] | IC50 (Pin1 [3]; [4]) [µM] | IC50 (Pin1 [3]; [5]) [µM] | Alexa488 Primary Curve Class (Pin1 [3]; primary qHTS) | Emax (Pin1 [3]; [6]) [%] | Emax (Pin1 [3]; read-out: Average HTS Efficacy) [%] | Tamra Secondary Efficacy (Pin1 [1]; Tamra-probe) [% Inh.] | Alexa488 Reconfirmed Efficacy (Pin1 [2]; confirmatory retest) [% Inh.] | Average HTS Efficacy (Pin1 [3]; average over Alexa488 primary, Alexa488 reconfirmed and Tamra secondary assays) [% Inh.] | Alexa488 Primary Efficacy (Pin1 [3]; primary qHTS) [% Inh.]
O=C(O)c1cccc2c1NC(C(=O)O)C1CC(Sc3ccccc3[N+](=O)[O-])C(Cl)C21 (centres unmarked) [Compound 3] |  | 1.2 (≤80% (class 1.2)) |  |  | 1.2 (≤80% (class 1.2)) |  |  |  |  |  |  | 72 | 61 | 71 | 80
O=C(O)C1Nc2ccc(Br)cc2C2C=CCC12 (centres unmarked) [Compound 6] | 11 |  | 87 | 10 |  | 85 | 22 | 14 |  | 42 | 72 |  |  |  | 
O=C(O)C1Nc2c(Cl)cc(Cl)c(Cl)c2C2C=CCC12 (centres unmarked) [Compound 5] | 2 | 1.2 (≤80% (class 1.2)) | 61 | 2 | 1.2 (≤80% (class 1.2)) | 75 | 18 | 7 | 1.2 (≤80% (class 1.2)) | 53 | 63 |  |  |  | 
O=C(O)C1Nc2c(O)cc(Cl)c([N+](=O)[O-])c2C2C=CCC12 (centres unmarked) [Compound 2] | 3 | 1.2 (≤80% (class 1.2)) | 69 | 2 |  | 89 | 7 | 4 |  | 86 | 81 |  |  |  | 
Cc1ccc(C)c2c1NC(C(=O)O)C1CC=CC21 (centres unmarked) [Compound 7] | 14 | 2.2 (≤80% (class 2.2)) | 63 |  | 2.2 (≤80% (class 2.2)) | 91 | 45 | 29 | 1.2 (≤80% (class 1.2)) | 63 | 72 |  |  |  | 
CCCCCC(=O)Nc1cc(S(=O)(=O)O)cc2cc(S(=O)(=O)O)cc(O)c12 [Compound 16] | 2 |  | 84 | 2 |  | 93 | 76 | 27 |  | 54 | 77 |  |  |  | 
NS(=O)(=O)c1cc(C(=O)NC2CCSc3ccccc32)ccc1Cl (centres unmarked) [Compound 11] | 4 |  | 91 | 3 |  | 93 | 3 | 3 | 1.2 (≤80% (class 1.2)) | 65 | 83 |  |  |  | 
Cc1ccc(N(Cc2cc(=O)[nH]c3ccccc23)C(=O)CCl)cc1 [Compound 9] | 1.2 |  | 97 | 2 |  | 111 | 10 | 4 |  | 78 | 95 |  |  |  | 
O=S(=O)(O)c1cc(O)c2cc(Nc3ccccc3)ccc2c1 [Compound 15] | 12 |  | 300 | 11 | 2.2 (≤80% (class 2.2)) | 71 | 10 | 11 | 2.2 (≤80% (class 2.2)) | 27 | 133 |  |  |  | 

Continued, in another order:

IC50 (Pin1 [1]) [µM] | Tamra Secondary Curve Class (Pin1 [1]; Tamra-probe) | Emax (Pin1 [1]) [%] | IC50 (Pin1 [2]) [µM] | Alexa488 Reconfirmed Curve Class (Pin1 [2]; confirmatory retest) | Emax (Pin1 [2]) [%] | IC50 (Pin1 [3]; [4]) [µM] | IC50 (Pin1 [3]; [5]) [µM] | Alexa488 Primary Curve Class (Pin1 [3]; primary qHTS) | Emax (Pin1 [3]; [6]) [%] | Emax (Pin1 [3]; read-out: Average HTS Efficacy) [%] | SMILES | Tamra Secondary Efficacy (Pin1 [1]; Tamra-probe) [% Inh.] | Alexa488 Reconfirmed Efficacy (Pin1 [2]; confirmatory retest) [% Inh.] | Average HTS Efficacy (Pin1 [3]; average over Alexa488 primary, Alexa488 reconfirmed and Tamra secondary assays) [% Inh.] | Alexa488 Primary Efficacy (Pin1 [3]; primary qHTS) [% Inh.]
5 | 2.2 (≤80% (class 2.2)) | 78 | 2 | 1.2 (≤80% (class 1.2)) | 73 | 38 | 15 | 1.2 (≤80% (class 1.2)) | 41 | 64 | O=C(O)CCCNC(=O)/C=C/c1ccco1 [Compound 19] |  |  |  | 
38 | 3.0 | 103 | 24 |  | 104 | 20 | 27 |  | 65 | 91 | CCCCCCCCCCCCN1[C@@H](C(=O)O)c2cc(C(F)(F)F)ccc2S1(=O)=O [Compound 34] |  |  |  | 
27 |  | 126 |  |  | 112 | 23 | 27 |  | 85 | 108 | COc1ccc(S(=O)(=O)N2CCN(C(=O)c3cc4c(s3)CCC4)CC2)cc1 [Compound 27] |  |  |  | 
10 | 2.2 (≤80% (class 2.2)) | 70 | 7 | 2.2 (≤80% (class 2.2)) | 84 | 48 | 21 | 1.2 (≤80% (class 1.2)) | 20 | 58 | Cc1cc(C(=O)NCc2ccc(C(=O)O)o2)c(C)o1 [Compound 33] |  |  |  | 
8 | 2.2 (≤80% (class 2.2)) | 72 | 11 | 2.2 (≤80% (class 2.2)) | 56 | 15 | 11 | 1.2 (≤80% (class 1.2)) | 58 | 62 | Cc1oc(-c2ccc3c(c2)OCCO3)cc1C(=O)NC(Cc1ccccc1)C(=O)O (centres unmarked) [Compound 21] |  |  |  | 
12 |  | 100 | 14 | 1.2 (≤80% (class 1.2)) | 101 | 43 | 23 | 1.2 (≤80% (class 1.2)) | 76 | 92 | O=S(=O)(Nc1nc(-c2sccc2Cl)cs1)c1cc(Cl)ccc1Cl [Compound 24] |  |  |  | 
2 |  | 82 | 2 |  | 85 | 4 | 2 |  | 74 | 80 | N#Cc1no[n+]([O-])c1C(=O)c1cccs1 [Compound 31] |  |  |  | 
12 | 2.2 (≤80% (class 2.2)) | 58 | 15 | 2.2 (≤80% (class 2.2)) | 63 | 85 | 37 | 1.2 (≤80% (class 1.2)) | 19 | 47 | CC(C)COc1ccc(C(=O)N/C(=C\c2cccc([N+](=O)[O-])c2)C(=O)O)cc1 [Compound 37] |  |  |  | 
19 | 2.2 (≤80% (class 2.2)) | 80 | 19 | 2.2 (≤80% (class 2.2)) | 62 | 30 | 23 | 2.2 (≤80% (class 2.2)) | 88 | 77 | O=C(O)c1cc(Cl)c2c(c1)[C@@H]1C=CC[C@@H]1[C@H](c1ccc(S(=O)(=O)N3CCOCC3)cc1)N2 [Compound 41] |  |  |  | 
21 | 2.2 (≤80% (class 2.2)) | 78 | 27 | 2.2 (≤80% (class 2.2)) | 84 | 43 | 30 | 2.2 (≤80% (class 2.2)) | 82 | 81 | C=CCOc1ccc(C(c2c(C(=O)O)[nH]c3ccccc23)c2c(C(=O)O)[nH]c3ccccc23)cc1 [Compound 46] |  |  |  | 
